Counter-ions that a name gives are not always drawn. Like-named read-outs stand apart in the source and are kept apart here.
Tests used:
[1] = system: phenyl-para-quinone induced writhing; assay: phenyl-para-quinone writhing assay in mice (analgesia); format: in vivo; conditions: subcutaneous
From the text: The compounds of the invention are primarily useful as analgesic and anticonvulsant agents. […] Exptl. Biol. Med., 95, 729 (1953)]. Listed below in Table III is the analgesic effect of some of the compounds of the invention, expressed as percent inhibition of phenyl-para-quinone induced writhing.

[2] = system: supra maximal electroshock (extensor tonus); assay: supra maximal electroshock assay (anticonvulsant); format: in vivo, male mice (Charles River, CD-1); conditions: Mus musculus, ip, read-out: % Inhibition (anticonvulsant effect)
Description: The compounds of the present invention are also useful as anticonvulsant agents for mammals as evidenced by the supra maximal electroshock assay of Woodbury, L. A. and Davenport, U. D. in Arch. Int. Pharmacodynam, Vol. 92 (1952) at pages 97-107.
In this method, groups of male mice are used (Charles River, CD-1), 18-30 grams. Drugs are prepared using distilled water and if insoluble, a surfactant is added. Control animals receive vehicle. Drugs are routinely administered intraperitoneally. The route of administration may be varied (orally, subcutaneously). The dosage volume is 10 ml/kg.
The animal's eyes are placed across the output terminals of an A.C. shocker that delivers 205 volts rms for 300 milliseconds. Electrode paste coats the animal's eyes at the point of contact with the terminals.
Protection is expressed as normalized percent inhibition relative to vehicle control.
A time response is carried out using 6 animals per group. Animals are tested at 30, 60 and 120 minutes post-drug. Additional time periods are tested if indicated by previous tests.
Listed below in Table II is the anticonvulsant effect of some of the compounds of the invention expressed as percent inhibition.

[3] = system: 5-HTP activity (continuous forelimb clonus); assay: L-5-hydroxytryptophan (5 HTP) potentiation in rats; format: in vivo, male Wistar rats; conditions: Rattus norvegicus, ip
Description: Groups of six male Wistar rats (150-200 grams) are used in this test procedure. Four hours prior to testing pargyline HCl is prepared and administered by subcutaneous injection at 75 mg/kg in 1% saline and at a dosage volume of 1.25 ml/kg. Thirty minutes before testing, drugs are prepared using distilled water and, if insoluble, a suitable surfactant is added. Control groups receive vehicle. Drugs are routinely administered intraperitoneally (i.p.) at a dosage volume of 10 ml.kg. L-5-Hydroxytryptophan is prepared at 1.0 mg/kg in distilled water and is administered i.p. in volumes proportional to 10 ml/kg. Drugs are administered in a randomized manner and 5-minute post 5-HTP treatment the animals are observed for 15 minutes. […] Potentiation is expressed as normalized percent potentiation relative to vehicle control. When a compound is observed to potentiate 5-HTP activity, a dose range using ten animals per group is run in the same manner. An effective dose (ED) is determined by probit analysis.

[4] = system: ptosis of tetrabenazine-induced depression; assay: inhibition of tetrabenazine-induced depression (ptosis) in mice; format: in vivo; conditions: intraperitoneal
[5] = diuretic activity in rats, drug to urea ratio; format: in vivo, female Wistar rats; conditions: oral, urine 0-5 hours, vs urea 1000 mg/kg
Description: Selected compounds of the present invention are useful as diuretics. The diuretic activity of the compounds is measured in the following manner. Groups of female Wistar rats (150-200 grams) are used and they are food deprived 16 hours prior to testing. Drugs are prepared in 1% saline and administered in a dosage volume of 15 ml/kg orally. After dosing each animal is placed in an individual metabolic cage. Water is permitted ad libitum. Urine is collected from 0-5 hours after dosing. […] The individual urine samples are analyzed for sodium and/or potassium and chloride. Sodium and potassium values are typically determined using a flame photometer. Chloride determinations are typically made by a chloride analyzer. Sodium, potassium and chloride values are expressed as the mean milliequivalents (mEq)/kg/5 hrs. Diuresis is expressed as the mean milliliters (ml)/kg/5 hrs. The mean values obtained for sodium, potassium, chloride and diuresis are expressed in a ratio to the sodium, potassium, chloride and diuresis values obtained for the urea treated group. This ratio is called the "drug to urea ratio." A drug to urea ratio greater than or equal to one for diuresis and/or sodium is indicative of diuretic activity. The diuretic effect of some of the compounds of the invention, expressed as the ratio of (a) the mean values obtained for diuresis (urine volume) of the compound treated group to the urea treated group and (b) the mean values obtained for sodium of the compound treated group to the urea treated group, are given in Table I.

[6] = intraperitoneal, probit analysis, read-out: ED50 (5-HTP potentiation)

Compound: O=C(O)/C=C\C(=O)O.O=[N+]([O-])c1ccc(OC2CNCc3ccccc32)cc1 (stereo not drawn) [4-(p-Nitrophenoxy)-1,2,3,4-tetrahydroisoquinoline maleate]
- % Inhibition of phenyl-para-quinone induced writhing ([1]; 25.0 mg/kg): 65%

Compound: FC(F)(F)c1cccc(OC2CNCc3ccccc32)c1 (stereo not drawn) [1,2,3,4-Tetrahydro-4-(m-trifluoromethylphenoxy)isoquinoline maleate]
- inhibition in vivo at 21 mg/kg ([2]; intraperitoneal, 21.0 mg/kg): 50%

Compound: CN1Cc2ccccc2C(Oc2ccc([N+](=O)[O-])cc2)C1 (stereo not drawn) [2-Methyl-4-(p-nitrophenoxy)-1,2,3,4-tetrahydroisoquinoline]
- ED50 [3, 6]: 4.5 mg/kg
- inhibition of the ptosis of tetrabenazine-induced depression ([4]; 20 mg/kg): 30%

Compound: CN1Cc2ccccc2C(Oc2ccc(C#N)cc2)C1 (stereo not drawn) [4-(p-Cyanophenoxy)-2-methyl-1,2,3,4-tetrahydroisoquinoline]
- Diuresis Drug to Urea Ratio (Vol.) ([5]; 50 mg/kg): 1.1
- Sodium Drug to Urea Ratio ([5]; 50 mg/kg): 1.2

Compound: Clc1ccc(OC2CNCc3ccccc32)cc1 (stereo not drawn) [4-(p-Chlorophenoxy)-1,2,3,4-tetrahydroisoquinoline hydrochloride]
- inhibition in vivo at 23.4 mg/kg ([2]; intraperitoneal, 23.4 mg/kg): 50%

Compound: CN1Cc2ccccc2C(Oc2ccc(C(F)(F)F)cc2)C1 (stereo not drawn) [4-(p-Trifluoromethylphenoxy)-2-methyl-1,2,3,4-tetrahydroisoquinoline oxalate]
- inhibition in vivo at 50 mg/kg ([2]; intraperitoneal): 50%

Compound: C=C(CC)C(=O)c1ccc(OCC(=O)O)c(Cl)c1Cl [ethacrynic acid, reference compound]
- Diuresis Drug to Urea Ratio (Vol.) ([5]; 64 mg/kg): 2.5

Compound: O=C(O)COc1ccc(C(=O)c2cccs2)c(Cl)c1Cl [tienilic acid, reference compound]
- Diuresis Drug to Urea Ratio (Vol.) ([5]; 64 mg/kg): 1.8

Compound: Propoxyphene [reference compound]
- % Inhibition of phenyl-para-quinone induced writhing ([1]; 3.9 mg/kg): 50%

Compound: FC(F)(F)c1ccc(OC2CN(CCCN3CCCCC3)Cc3ccccc32)cc1.O=C(O)C(=O)O.O=C(O)C(=O)O (stereo not drawn) [2-(3-Piperidinopropyl)-1,2,3,4-tetrahydro-4-(p-trifluoromethylphenoxy)isoquinoline dioxalate]
- % Inhibition of phenyl-para-quinone induced writhing ([1]; 15.4 mg/kg): 50%
- Diuresis Drug to Urea Ratio (Vol.) ([5]; 10 mg/kg): 1.6
- Sodium Drug to Urea Ratio ([5]; 10 mg/kg): 2.2

Compound: CNC1=Nc2ccc(Cl)cc2C(c2ccccc2)=[N+]([O-])C1 [Chlorodiazepoxide, reference compound]
- inhibition in vivo at 8 mg/kg [2]: 50%

Compound: CN1Cc2ccccc2C(Oc2cccc(C(F)(F)F)c2)C1.O=C(O)/C=C\C(=O)O (stereo not drawn) [2-Methyl-1,2,3,4-tetrahydro-4-(m-trifluoromethylphenoxy)isoquinoline maleate]
- ED50 [3, 6]: 7.8 mg/kg
- inhibition in vivo at 50 mg/kg ([2]; intraperitoneal): 67%
- inhibition of the ptosis of tetrabenazine-induced depression ([4]; 20 mg/kg): 50%

Compound: CN(C)CCC=C1c2ccccc2CCc2ccccc21 [Amitriptyline, reference compound]
- ED50 ([3]; standard, unit inferred, read-out: ED50 (5-HTP potentiation), standard): 7.1 mg/kg
- inhibition of the ptosis of tetrabenazine-induced depression ([4]; 2 mg/kg): 50%

Compound: CN(C)CCCN1Cc2ccccc2C(Oc2cccc(C(F)(F)F)c2)C1.O=C(O)/C=C\C(=O)O.O=C(O)/C=C\C(=O)O (stereo not drawn) [2-(3-Dimethylaminopropyl)-1,2,3,4-tetrahydro-4-(m-trifluoromethylphenoxy)isoquinoline dimaleate]
- % Inhibition of phenyl-para-quinone induced writhing ([1]; 25.0 mg/kg): 53%
- inhibition in vivo at 50 mg/kg ([2]; intraperitoneal): 100%

Compound: FC(F)(F)c1ccc(OC2CNCc3ccccc32)cc1 (stereo not drawn) [1,2,3,4-Tetrahydro-4-(p-trifluoromethylphenoxy)isoquinoline hydrochloride]
- inhibition in vivo at 35 mg/kg ([2]; intraperitoneal, 35.0 mg/kg): 50%

Compound: CCN(CC)CCN1Cc2ccccc2C(Oc2ccc(C(F)(F)F)cc2)C1 (stereo not drawn) [2-(2-N,N-Diethylaminoethyl)-4-(p-trifluoromethylphenoxy)-1,2,3,4-tetrahydroisoquinoline dioxalate]
- % Inhibition of phenyl-para-quinone induced writhing ([1]; 21.8 mg/kg): 50%
- Diuresis Drug to Urea Ratio (Vol.) ([5]; 25 mg/kg): 1.4
- Sodium Drug to Urea Ratio ([5]; 25 mg/kg): 1.0
- inhibition in vivo at 14.8 mg/kg ([2]; intraperitoneal, 14.8 mg/kg): 50%

Compound: 1,2,3,4-tetrahydro-4-(p-trifluoromethylphenyl)isoquinoline hydrochloride
- % Inhibition of phenyl-para-quinone induced writhing ([1]; 25.0 mg/kg): 51%

Compound: CN1C(=O)CN=C(c2ccccc2)c2cc(Cl)ccc21 [Diazepam, reference compound]
- inhibition in vivo at 1.7 mg/kg [2]: 50%

Compound: CN(C)CCN1Cc2ccccc2C(Oc2ccc(C(F)(F)F)cc2)C1 (stereo not drawn) [2-(2-N,N-Dimethylaminoethyl)-4-(p-trifluoromethylphenoxy)-1,2,3,4-tetrahydroisoquinoline dihydrochloride]
- % Inhibition of phenyl-para-quinone induced writhing ([1]; 14.4 mg/kg): 50%
- inhibition in vivo at 10.3 mg/kg ([2]; intraperitoneal, 10.3 mg/kg): 50%

Compound: CN(C)CCN1Cc2ccccc2C(Oc2ccc(C(F)(F)F)cc2)C1 (stereo not drawn) [2-(2-N,N--dimethylaminoethyl)-1,2,3,4-tetrahydro-4-(p-trifluoromethylphenoxy)isoquinoline]
- Diuresis Drug to Urea Ratio (Vol.) ([5]; 25 mg/kg): 1.1
- Sodium Drug to Urea Ratio ([5]; 25 mg/kg): 1.4

Compound: CN(C)CCCN1Cc2ccccc2C(Oc2ccc(C(F)(F)F)cc2)C1 (stereo not drawn) [2-(3-Dimethylaminopropyl)-1,2,3,4-tetrahydro-4-(p-trifluoromethylphenoxy)isoquinoline dihydrochloride]
- inhibition in vivo at 14.4 mg/kg ([2]; intraperitoneal, 14.4 mg/kg): 50%

Compound: CN(C)CCCN1Cc2ccccc2C(Oc2ccc([N+](=O)[O-])cc2)C1 (stereo not drawn) [2-(3-N,N-dimethylaminopropyl)-4-(p-nitrophenoxy)-1,2,3,4-tetrahydroisoquinoline dihydrochloride]
- % Inhibition of phenyl-para-quinone induced writhing ([1]; 14.7 mg/kg): 50%

Compound: CN(C)CCCN1Cc2ccccc2C(Oc2ccc(Cl)cc2)C1 (stereo not drawn) [4-(p-Chlorophenoxy)-2-(3-dimethylaminopropyl)-1,2,3,4-tetrahydroisoquinoline dimaleate]
- inhibition in vivo at 50 mg/kg ([2]; intraperitoneal): 100%

Source: patent publication US4477670A, “4-Aryloxy-1,2,3,4-tetrahydroisoquinolines” (Hoechst-Roussel Pharmaceuticals Inc., priority 1982, dated 1984)
